One molecule from patent US10604524B2, “Pyrropyrimidine compounds as MNKs inhibitors” (LIFEARC, priority 2015, dated 2020) can be followed below.

Experiment in all cases: Kinase selectivity screen
In one test the target is STK17A (Homo sapiens, UniProt Q9UEE5). Particulars: read-out: % Inhibition STK17A.
A further test has as its target ROS1 (Homo sapiens, UniProt P08922). The conditions noted are these: read-out: % Inhibition ROS1.
Another test has as its target CHEK1 (Homo sapiens, UniProt O14757). Particulars: read-out: % Inhibition CHEK1.
The next test deals with ABL2 (Homo sapiens, UniProt P42684). The conditions noted are these: read-out: % Inhibition ABL2.
The target in another test is INSR (Homo sapiens, UniProt P06213). The conditions noted are these: read-out: % Inhibition INSR.
Another test addresses IGF1R (Homo sapiens, UniProt P08069). The conditions noted are these: read-out: % Inhibition IGF1R.
The next test addresses PIP5K1A (Homo sapiens, UniProt Q99755). Particulars: read-out: % Inhibition PIP5K1A.
In another test the target is IRAK4 (Homo sapiens, UniProt Q9NWZ3). The conditions noted are these: read-out: % Inhibition IRAK4.
The target in the next test is PRAK (Homo sapiens, UniProt Q8IW41). Particulars: read-out: % Inhibition PRAK.
The next test concerns the target EPHB4 (Homo sapiens, UniProt P54760). Particulars: read-out: % Inhibition EPHB4.
A further test deals with PDPK1 (Homo sapiens, UniProt O15530). Particulars: read-out: % Inhibition PDPK1.
A further test deals with NEK2 (Homo sapiens, UniProt P51955). The conditions noted are these: read-out: % Inhibition NEK2.
For a further test, the target named is RAF1 (Homo sapiens, UniProt P04049). Particulars: read-out: % Inhibition RAF1.
Another test concerns the target YES1 (Homo sapiens, UniProt P07947). Particulars: read-out: % Inhibition YES1.
Another test has as its target MAP3K9 (Homo sapiens, UniProt P80192). Particulars: read-out: % Inhibition MAP3K9.
The target of the next test is LYN (Homo sapiens, UniProt P07948). The conditions noted are these: read-out: % Inhibition LYN.
The next test deals with BLK (Homo sapiens, UniProt P51451). Particulars: read-out: % Inhibition BLK.

Molecules are shown by their SMILES.

EPHB4, sequence (P54760 16-987, species assumed): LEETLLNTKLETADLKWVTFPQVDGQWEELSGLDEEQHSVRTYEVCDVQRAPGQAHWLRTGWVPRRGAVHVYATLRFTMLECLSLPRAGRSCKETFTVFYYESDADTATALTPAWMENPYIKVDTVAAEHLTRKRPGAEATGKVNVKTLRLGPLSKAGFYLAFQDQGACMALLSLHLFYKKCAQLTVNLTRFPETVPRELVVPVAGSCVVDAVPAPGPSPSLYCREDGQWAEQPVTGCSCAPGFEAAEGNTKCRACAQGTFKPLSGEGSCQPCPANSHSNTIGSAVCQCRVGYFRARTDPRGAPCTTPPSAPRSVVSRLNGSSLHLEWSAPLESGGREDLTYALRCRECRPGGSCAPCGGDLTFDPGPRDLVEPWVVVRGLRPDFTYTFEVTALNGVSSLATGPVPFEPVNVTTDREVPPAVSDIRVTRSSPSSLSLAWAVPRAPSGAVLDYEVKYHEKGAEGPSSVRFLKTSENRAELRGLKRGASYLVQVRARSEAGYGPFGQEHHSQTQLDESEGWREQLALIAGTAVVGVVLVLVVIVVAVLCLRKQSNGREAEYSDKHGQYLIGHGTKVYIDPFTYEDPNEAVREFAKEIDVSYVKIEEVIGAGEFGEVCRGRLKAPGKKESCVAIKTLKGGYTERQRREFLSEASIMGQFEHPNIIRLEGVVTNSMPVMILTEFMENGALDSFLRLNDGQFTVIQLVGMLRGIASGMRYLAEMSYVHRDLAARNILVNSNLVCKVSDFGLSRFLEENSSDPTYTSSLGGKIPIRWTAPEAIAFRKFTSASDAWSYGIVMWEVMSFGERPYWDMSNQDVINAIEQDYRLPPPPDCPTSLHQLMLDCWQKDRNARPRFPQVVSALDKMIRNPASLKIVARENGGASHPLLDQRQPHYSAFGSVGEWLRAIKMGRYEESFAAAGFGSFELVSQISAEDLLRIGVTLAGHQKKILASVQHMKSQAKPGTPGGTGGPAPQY
PRAK, sequence (Q8IW41 whole entry, species assumed): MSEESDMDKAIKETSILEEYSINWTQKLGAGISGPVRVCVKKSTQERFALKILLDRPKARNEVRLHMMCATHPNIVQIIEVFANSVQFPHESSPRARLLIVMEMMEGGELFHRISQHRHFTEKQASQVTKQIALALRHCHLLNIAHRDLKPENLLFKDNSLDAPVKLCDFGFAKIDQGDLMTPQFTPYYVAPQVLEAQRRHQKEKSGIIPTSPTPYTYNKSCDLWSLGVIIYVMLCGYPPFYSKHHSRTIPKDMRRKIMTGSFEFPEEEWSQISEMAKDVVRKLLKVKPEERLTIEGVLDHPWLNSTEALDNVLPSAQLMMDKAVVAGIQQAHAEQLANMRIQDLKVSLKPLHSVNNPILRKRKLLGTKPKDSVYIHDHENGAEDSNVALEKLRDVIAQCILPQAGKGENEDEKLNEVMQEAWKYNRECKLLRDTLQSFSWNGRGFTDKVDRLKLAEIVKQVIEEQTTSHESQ
IGF1R, sequence (P08069 31-1367, species assumed): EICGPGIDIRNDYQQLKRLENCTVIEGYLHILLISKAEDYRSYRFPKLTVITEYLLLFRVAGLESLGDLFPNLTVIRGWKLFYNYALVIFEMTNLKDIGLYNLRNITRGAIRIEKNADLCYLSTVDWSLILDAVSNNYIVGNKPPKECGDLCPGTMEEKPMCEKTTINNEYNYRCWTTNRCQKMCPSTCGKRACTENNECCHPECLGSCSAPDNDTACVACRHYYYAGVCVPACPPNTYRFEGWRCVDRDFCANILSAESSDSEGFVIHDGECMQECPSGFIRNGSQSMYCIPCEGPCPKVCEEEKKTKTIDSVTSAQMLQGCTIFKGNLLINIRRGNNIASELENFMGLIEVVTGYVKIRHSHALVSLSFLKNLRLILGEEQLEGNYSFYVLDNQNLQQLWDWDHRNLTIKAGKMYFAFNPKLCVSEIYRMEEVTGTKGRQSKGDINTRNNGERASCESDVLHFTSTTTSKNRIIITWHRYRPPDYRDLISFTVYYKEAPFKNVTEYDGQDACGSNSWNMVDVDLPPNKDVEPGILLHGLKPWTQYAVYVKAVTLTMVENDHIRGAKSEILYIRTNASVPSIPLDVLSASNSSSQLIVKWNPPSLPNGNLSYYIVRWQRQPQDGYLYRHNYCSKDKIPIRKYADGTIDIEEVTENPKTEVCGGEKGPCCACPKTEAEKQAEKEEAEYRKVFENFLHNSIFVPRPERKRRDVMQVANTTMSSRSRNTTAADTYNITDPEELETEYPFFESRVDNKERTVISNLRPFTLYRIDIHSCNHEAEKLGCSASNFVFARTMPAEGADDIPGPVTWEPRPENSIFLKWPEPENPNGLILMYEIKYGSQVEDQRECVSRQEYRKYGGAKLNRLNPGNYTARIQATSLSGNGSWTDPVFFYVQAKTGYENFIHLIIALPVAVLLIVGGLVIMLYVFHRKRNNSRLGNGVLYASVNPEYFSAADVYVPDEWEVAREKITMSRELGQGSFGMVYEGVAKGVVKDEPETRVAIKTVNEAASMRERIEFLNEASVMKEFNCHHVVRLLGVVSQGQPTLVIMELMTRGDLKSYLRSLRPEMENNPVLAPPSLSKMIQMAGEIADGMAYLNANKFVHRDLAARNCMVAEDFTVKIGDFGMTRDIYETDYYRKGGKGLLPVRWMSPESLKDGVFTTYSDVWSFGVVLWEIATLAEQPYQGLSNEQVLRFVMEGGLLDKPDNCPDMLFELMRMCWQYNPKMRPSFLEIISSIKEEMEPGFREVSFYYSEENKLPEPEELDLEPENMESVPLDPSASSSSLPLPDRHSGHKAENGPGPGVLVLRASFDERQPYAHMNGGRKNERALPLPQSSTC
MAP3K9, sequence (P80192 whole entry, species assumed): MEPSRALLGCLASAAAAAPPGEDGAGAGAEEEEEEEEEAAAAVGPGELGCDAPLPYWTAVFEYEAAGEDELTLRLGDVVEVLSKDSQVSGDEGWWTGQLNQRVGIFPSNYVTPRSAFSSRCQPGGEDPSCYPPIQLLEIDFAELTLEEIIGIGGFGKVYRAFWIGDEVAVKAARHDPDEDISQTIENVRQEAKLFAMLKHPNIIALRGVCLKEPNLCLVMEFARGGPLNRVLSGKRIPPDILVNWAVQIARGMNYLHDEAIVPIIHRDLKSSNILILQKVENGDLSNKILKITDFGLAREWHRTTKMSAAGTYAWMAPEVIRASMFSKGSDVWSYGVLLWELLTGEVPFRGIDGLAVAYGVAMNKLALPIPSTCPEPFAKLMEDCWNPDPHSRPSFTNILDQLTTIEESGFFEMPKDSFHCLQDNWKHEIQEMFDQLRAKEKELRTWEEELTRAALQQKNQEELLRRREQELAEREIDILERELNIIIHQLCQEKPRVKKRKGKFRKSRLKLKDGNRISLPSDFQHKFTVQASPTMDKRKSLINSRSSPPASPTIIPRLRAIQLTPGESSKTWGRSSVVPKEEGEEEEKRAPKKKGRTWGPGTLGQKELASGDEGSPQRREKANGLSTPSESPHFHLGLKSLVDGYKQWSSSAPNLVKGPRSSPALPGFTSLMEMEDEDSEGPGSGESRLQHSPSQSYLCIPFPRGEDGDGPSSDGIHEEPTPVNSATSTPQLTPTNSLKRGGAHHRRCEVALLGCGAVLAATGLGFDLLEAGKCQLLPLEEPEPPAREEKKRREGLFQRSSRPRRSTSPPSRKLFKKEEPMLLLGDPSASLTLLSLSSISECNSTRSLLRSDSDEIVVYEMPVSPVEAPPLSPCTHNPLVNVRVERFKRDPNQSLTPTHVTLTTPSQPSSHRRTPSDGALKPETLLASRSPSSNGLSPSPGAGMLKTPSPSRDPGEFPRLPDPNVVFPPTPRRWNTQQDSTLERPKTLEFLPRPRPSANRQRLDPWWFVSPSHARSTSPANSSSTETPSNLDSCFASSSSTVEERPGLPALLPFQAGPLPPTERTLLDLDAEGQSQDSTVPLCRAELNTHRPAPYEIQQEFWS
LYN, sequence (P07948 whole entry, species assumed): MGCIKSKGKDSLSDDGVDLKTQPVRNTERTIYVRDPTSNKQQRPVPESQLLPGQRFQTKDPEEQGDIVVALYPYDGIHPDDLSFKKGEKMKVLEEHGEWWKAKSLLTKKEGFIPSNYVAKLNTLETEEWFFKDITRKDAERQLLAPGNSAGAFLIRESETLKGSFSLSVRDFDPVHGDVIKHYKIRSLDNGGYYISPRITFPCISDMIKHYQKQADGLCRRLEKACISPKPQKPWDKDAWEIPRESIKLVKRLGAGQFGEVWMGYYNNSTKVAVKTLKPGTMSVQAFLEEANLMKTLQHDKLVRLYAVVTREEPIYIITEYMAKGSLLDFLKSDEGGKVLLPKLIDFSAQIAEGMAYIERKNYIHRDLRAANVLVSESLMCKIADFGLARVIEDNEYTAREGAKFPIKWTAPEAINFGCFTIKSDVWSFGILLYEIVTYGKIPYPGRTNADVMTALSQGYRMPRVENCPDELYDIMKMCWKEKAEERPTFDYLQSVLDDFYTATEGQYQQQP
PIP5K1A, sequence (Q99755 whole entry, species assumed): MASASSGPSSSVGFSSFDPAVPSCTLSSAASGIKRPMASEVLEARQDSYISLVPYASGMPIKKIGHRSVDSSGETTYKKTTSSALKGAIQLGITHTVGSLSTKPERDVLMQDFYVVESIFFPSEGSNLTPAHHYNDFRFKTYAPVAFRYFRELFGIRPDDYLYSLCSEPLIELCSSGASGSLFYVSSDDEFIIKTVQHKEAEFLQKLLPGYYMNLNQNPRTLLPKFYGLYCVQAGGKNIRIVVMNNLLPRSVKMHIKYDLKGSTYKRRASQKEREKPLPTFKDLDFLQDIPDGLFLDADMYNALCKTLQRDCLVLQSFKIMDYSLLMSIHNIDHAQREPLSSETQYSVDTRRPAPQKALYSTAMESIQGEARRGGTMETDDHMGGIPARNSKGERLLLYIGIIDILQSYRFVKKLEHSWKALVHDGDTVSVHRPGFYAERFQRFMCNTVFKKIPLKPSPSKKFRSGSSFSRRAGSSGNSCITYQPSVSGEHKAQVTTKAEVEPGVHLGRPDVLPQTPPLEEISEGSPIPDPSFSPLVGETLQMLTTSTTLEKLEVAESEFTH

In general, inhibition refers to the share of the control response that was lost under treatment. Consider `CC(C)Oc1cc(F)ccc1Nc1ncnc2cc(C(=O)NCCCN(C)C)n(C)c12` [Example 40, N-[3-(dimethylamino)propyl]-4-{[4-fluoro-2-(propan-2-yloxy)phenyl]amino}-5-methyl-5H-pyrrolo[3,2-d]pyrimidine-6-carboxamide], for which the inhibition at 1 µM at STK17A came to 2%; on ROS1 it was 0%; at CHEK1, 0%; on ABL2, 0%; at INSR it was 0%; on IGF1R, 0%. Besides, the inhibition at 1 µM on PIP5K1A was determined as 2%; at IRAK4, 0%; at PRAK it was 0%; at EPHB4, 2%; on PDPK1 it was 0%; at NEK2 it was 0%. Besides, the inhibition at 1 µM at RAF1 came out at 0%; at YES1, 0%; at MAP3K9, 0%; on LYN, 11%; on BLK, 4%.
